Test results: patent US10809268B2, “Methods and kits for measuring and quantifying DNA double-stranded breaks using gamma-H2AX and H2AX” (The United States of America, as represented by the …, priority 2015, dated 2020)

Tests used:
[1] = test system: MCF7 cells; experiment: γ-H2AX and total H2AX immunoassays in MCF7 cells treated with SN38 and ATR inhibitors; format: cell-based, human; details: SN38 0.25 μM plus ATRi 1 or 0.5 μM
[2] = test system: A375 xenografts; experiment: γ-H2AX and total H2AX immunoassays on cells from drug-treated A375 xenograft mouse models; details: A375 xenografts in vivo; PARPi given simultaneously or four hours before CPT-11
Procedure: Pierce REACTI-BIND plates (96-well) (Thermo Scientific) were coated with anti-7-H2AX antibody (Millipore) diluted to a concentration of 4 μg/mL in 0.1 M pH 9.6 carbonate buffer (Sigma-Aldrich, St. Louis, Mo.), 100 μL/well, for 2 hours at 37° C. The γ-H2AX synthetic peptide standard or a whole-cell extract was added to each well and incubated for antigen capture overnight at 4° C. Plates were incubated with 100 μL/well of 2 μg/mL anti-histone H2AX rabbit polyclonal antibody (Abcam) diluted in 2% bovine serum albumin (BSA)/phosphate buffered saline (PBS) supplemented with 1 μL/mL mouse serum for 2 hours (h) at 24° C. Subsequently, 100 μL/well HRP-conjugated affinity-purified goat anti-rabbit (KPL) was added at a final concentration of 1 μg/mL diluted in 2% BSA/PBS, supplemented with 1 μL/mL mouse serum, and incubated for 1 hour at 24° C. […] M200 plate reader (Tecan Group Ltr., Maennedorf, Switzerland). A standard curve was generated by plotting the RLU (relative light unit) values that were obtained for a range of concentrations of the γ-H2AX standard peptide (FIG. 1A). The average γ-H2AX concentration for each cell extract was then determined using the standard curve (FIG. 1B).
A375 xenograft mouse models were treated with vehicle (control), CPT-11 alone, a PARP inhibitor alone, a combination of CPT-11 and the PARP inhibitor (PARPi) administered simultaneously, or a combination of CPT-11 and the PARPi, wherein the PARPi is administered four hours before CPT-11 is administered. […] Cells from the treated mice were quantified for γ-H2AX and total H2AX using the immunoassays of Examples 1 and 2, respectively, and the ratio of γ-H2AX to total H2AX was determined.

[3] = test system: γ-H2AX in HCT116 cells; experiment: γ-H2AX immunoassay (γ-H2AX ELISA) in treated HCT116 cell cultures; format: cell-based, human
Procedure: (§1) Pierce REACTI-BIND plates (96-well) (Thermo Scientific) were coated with anti-7-H2AX antibody (Millipore) diluted to a concentration of 4 μg/mL in 0.1 M pH 9.6 carbonate buffer (Sigma-Aldrich, St. Louis, Mo.), 100 μL/well, for 2 hours at 37° C. The γ-H2AX synthetic peptide standard or a whole-cell extract was added to each well and incubated for antigen capture overnight at 4° C. Plates were incubated with 100 μL/well of 2 μg/mL anti-histone H2AX rabbit polyclonal antibody (Abcam) diluted in 2% bovine serum albumin (BSA)/phosphate buffered saline (PBS) supplemented with 1 μL/mL mouse serum for 2 hours (h) at 24° C. Subsequently, 100 μL/well HRP-conjugated affinity-purified goat anti-rabbit (KPL) was added at a final concentration of 1 μg/mL diluted in 2% BSA/PBS, supplemented with 1 μL/mL mouse serum, and incubated for 1 hour at 24° C. Finally, 100 μL/well of freshly prepared SUPERSIGNAL ELISA Pico chemiluminescent substrate (Thermo Scientific, Waltham, Mass.) was added to the plate and immediately read on a TECAN INFINITE M200 plate reader (Tecan Group Ltr., Maennedorf, Switzerland). A standard curve was generated by plotting the RLU (relative light unit) values that were obtained for a range of concentrations of the γ-H2AX standard peptide (FIG. 1A). The average γ-H2AX concentration for each cell extract was then determined using the standard curve (FIG. 1B).
(§2) Human […] cancer cell lines HCT 116 or MCF 7 (ATCC) were cultured with 10% fetal bovine serum at 37° C. in a 5% CO2 incubator. The cells were treated with the topoisomerase I inhibitor topotecan, the apoptosis-inducing biomolecule tumor necrosis factor (TNF)-related apoptosis-inducing ligand (TRAIL), or IR. The γ-H2AX immunoassay (γ-H2AX ELISA) was compared with γ-H2AX detection by both Western blot and immunofluorescence assay (IFA).
(§3) The ELISA detected changes in γ-H2AX in HCT116 cell cultures induced by a variety of treatments in vitro and was overall highly correlated to both IFA and Western blot following treatment with topotecan or TRAIL (Table 6).

[4] = test system: γ-H2AX in HCT116 cells; experiment: γ-H2AX detection by immunofluorescence assay (IFA) in treated HCT116 cell cultures; format: cell-based, human
Procedure: as §2, §3

[5] = test system: γ-H2AX in HCT116 cells; experiment: γ-H2AX detection by Western blot in treated HCT116 cell cultures; format: cell-based, human
Procedure: as §2, §3

[6] = test system: HT29 cells; experiment: Ratio of γ-H2AX to total H2AX in HT29 cells treated 1 hour in vitro; format: cell-based, human
Procedure: as §1, with “A standard curve was generated by plotting the RLU (relative light unit) values that were obtained for a range of concentrations of the γ-H2AX standard peptide (FIG. 1A).” left out
Pierce REACTI-BIND plates (96-well) were coated with total anti-H2A core protein HIST1H2AC monoclonal antibody (Novus, St. Charles, Mo.) diluted to a concentration of 4 μg/mL in 0.1 M pH 9.6 carbonate buffer (Sigma-Aldrich), 100 μL/well, for 2 hours at 37° C. […] Finally, 100 μL/well of freshly prepared SUPERSIGNAL ELISA Pico chemiluminescent substrate (Thermo Scientific) was added to the plate and immediately read on a TECAN INFINITE M200 plate reader. […] The average total H2AX concentration for each cell extract was then determined using the standard curve (FIG. 2B).
HT29 cells were treated with the genotoxic agent camptothecin (CPT) or the non-genotoxic agent rhomidepsin for 1 hour at a concentration of 0 (vehicle) 0.001, 0.001, 0.01, 1 or 10 μM. […] DNA DSB, as measured by the ratio of γ-H2AX to total H2AX, was detected with CPT treatment as low as 1 nM. […]

[7] = test system: γ-H2AX in HT29 or MCF7 cells; experiment: Microscope staining with labeled anti-γ-H2AX antibody (IFA) of cells treated as in Example 14; format: cell-based, human; details: 10 nM, 100 nM, 1 μM and 10 μM CPT; intensity increased with concentration
From the text: The presence of γ-H2AX in the cells treated as described in Example 14 was confirmed by staining using a labeled anti-γ-H2AX antibody and observing the intensity of the staining through a microscope. […] The staining intensity increased as the concentration of CPT used to treat the cells increased.
The γ-H2AX in the cells treated as described in Example 14 was quantified by staining using a labeled anti-γ-H2AX antibody and measuring the intensity of the staining observed through a microscope (immunofluorescence microscope assay (IFA)). The quantity of γ-H2AX measured by staining intensity was compared to the ratio of γ-H2AX to total H2AX measured by the immunoassays (IA) of Examples 1 and 2. The results are shown in FIG. 18A (HT29) and FIG. 18B (MCF7).

[8] = test system: tumors of the human breast carcinoma cell line MX1; experiment: γ-H2AX and total H2AX immunoassays on tumor biopsies of drug-treated nude mice with MX1 tumors; format: in vivo
Procedure: as §1, with “Subsequently, 100 μL/well HRP-conjugated affinity-purified goat anti-rabbit (KPL) was added at a final concentration of 1 μg/mL diluted in 2% BSA/PBS, supplemented with 1 μL/mL mouse serum, and incubated for 1 hour at 24° C.” left out, “A standard curve was generated by plotting the RLU (relative light unit) values that were obtained for a range of concentrations of the γ-H2AX standard peptide (FIG. 1A).” left out
Pierce REACTI-BIND plates (96-well) were coated with total anti-H2A core protein HIST1H2AC monoclonal antibody (Novus, St. Charles, Mo.) diluted to a concentration of 4 μg/mL in 0.1 M pH 9.6 carbonate buffer (Sigma-Aldrich), 100 μL/well, for 2 hours at 37° C. […] The average total H2AX concentration for each cell extract was then determined using the standard curve (FIG. 2B). […]

Nc1nc(N)c(N=O)c(OCC2CCCCC2)n1 [NU-6027]
synergy for γ-H2AX induction in combination with the Top1 inhibitor SN38 [1]: none

CNCc1ccc(-c2cc(-c3nc(-c4ccc(S(=O)(=O)C(C)C)cc4)cnc3N)on2)cc1 [VE-822]
synergy for γ-H2AX induction in combination with the Top1 inhibitor SN38 [1]: highest synergy

NC(=O)c1cccc2cn(-c3ccc([C@@H]4CCCNC4)cc3)nc12 [MK-4827]
induction of γ-H2AX (DNA DSB) in combination with CPT-11 [2]: synergistic induction of γ-H2AX

C[C@]1(c2nc3c(C(N)=O)cccc3[nH]2)CCCN1 [ABT-888]
induction of γ-H2AX (DNA DSB) in combination with CPT-11 [2]: synergistic induction of γ-H2AX

CC[C@@]1(O)C(=O)OCc2c1cc1n(c2=O)Cc2cc3c(CN(C)C)c(O)ccc3nc2-1 [Topotecan, topotecan]
γ-H2AX ELISA ([3]; Topotecan 1 μM, 0 hr): 124 pM | γ-H2AX ELISA ([3]; Topotecan 1 μM, 1 hr): 2536 pM | γ-H2AX ELISA ([3]; Topotecan 1 μM, 3 hr): 3134 pM | γ-H2AX ELISA ([3]; Topotecan 1 μM, 6 hr): 4793 pM | γ-H2AX IFA ([4]; Topotecan 1 μM, 0 hr): 0.7 RLU | γ-H2AX IFA ([4]; Topotecan 1 μM, 1 hr): 23.0 RLU | γ-H2AX IFA ([4]; Topotecan 1 μM, 3 hr): 43.9 RLU | γ-H2AX IFA ([4]; Topotecan 1 μM, 6 hr): 51.2 RLU | γ-H2AX Western Blot ([5]; Topotecan 1 μM, 0 hr): 4.7 RLU | γ-H2AX Western Blot ([5]; Topotecan 1 μM, 1 hr): 8.1 RLU | γ-H2AX Western Blot ([5]; Topotecan 1 μM, 3 hr): 6.9 RLU | γ-H2AX Western Blot ([5]; Topotecan 1 μM, 6 hr): 14.3 RLU

CC[C@@]1(O)C(=O)OCc2c1cc1n(c2=O)Cc2cc3ccccc3nc2-1 [CPT, camptothecin]
concentration at which DNA DSB, as measured by the ratio of γ-H2AX to total H2AX, was detected ([6]; 1 hour treatment): ≥ 1 nM | concentration giving a detectable signal of DNA DSB (ratio of γ-H2AX to total H2AX) ([6]; 1 hour, with as few as 160 cells per assay): ≥ 0.01 µM | staining with labeled anti-γ-H2AX antibody [7]: Staining was observed

C[C@@H]1COCCN1c1cc(C2([S@](C)(=N)=O)CC2)nc(-c2cc[nH]c3nccc2-3)n1 [AZD-6738]
synergy for γ-H2AX induction in combination with the Top1 inhibitor SN38 [1]: highest synergy

CCc1c2c(nc3ccc(OC(=O)N4CCC(N5CCCCC5)CC4)cc13)-c1cc3c(c(=O)n1C2)COC(=O)[C@]3(O)CC [irinotecan]
γ-H2AX induction (ratio of γH2AX to total H2AX) ([8]; irinotecan 7.5 units IV alone, MX1 tumor biopsies, nude mice): induced γ-H2AX modestly

O=C(c1cc(Cc2n[nH]c(=O)c3ccccc23)ccc1F)N1CCN(C(=O)C2CC2)CC1 [AZD2281]
γ-H2AX induction (ratio of γH2AX to total H2AX) ([8]; 50 or 6.25 units AZD2281 IP in combination with irinotecan 7.5 units IV, particularly at 4 hours after administration): induced substantially more γ-H2AX | induction of γ-H2AX (DNA DSB) in combination with CPT-11 [2]: synergistic induction of γ-H2AX

C/C=C1\NC(=O)[C@H]2CSSCC/C=C/[C@H](CC(=O)N[C@H](C(C)C)C(=O)N2)OC(=O)[C@H](C(C)C)NC1=O [rhomidepsin]
DNA DSB, as measured by the ratio of γ-H2AX to total H2AX ([6]; 1 hour, even at a concentration as high as 10 μM): no DNA DSB

B1: TRAIL: apoptosis-inducing biomolecule tumor necrosis factor (TNF)-related apoptosis-inducing ligand (protein, UniProt P50591 1-281, looked up)
Tumor necrosis factor ligand …: MAMMEVQGGPSLGQTCVLIVIFTVLLQSLCVAVTYVYFTNELKQMQDKYSKSGIACFLKEDDSYWDPNDEESMNSPCWQVKWQLRQLVRKMILRTSEETISTVQEKQQNISPLVRERGPQRVAAHITGTRGRSNTLSSPNSKNEKALGRKINSWESSRSGHSFLSNLHLRNGELVIHEKGFYYIYSQTYFRFQEEIKENTKNDKQMVQYIYKYTSYPDPILLMKSARNSCWSKDAEYGLYSIYQGGIFELKENDRIFVSVTNEHLIDMDHEASFFGAFLVG
γ-H2AX ELISA ([3]; TRAIL 0.1 μg/mL, 0 hr): 134 pM | γ-H2AX ELISA ([3]; TRAIL 0.1 μg/mL, 1 hr): 2764 pM | γ-H2AX ELISA ([3]; TRAIL 0.1 μg/mL, 3 hr): 9276 pM | γ-H2AX ELISA ([3]; TRAIL 0.1 μg/mL, 6 hr): 7703 pM | γ-H2AX IFA ([4]; TRAIL 0.1 μg/mL, 0 hr): 2.0 RLU | γ-H2AX IFA ([4]; TRAIL 0.1 μg/mL, 1 hr): 34.5 RLU | γ-H2AX IFA ([4]; TRAIL 0.1 μg/mL, 3 hr): 72.2 RLU | γ-H2AX IFA ([4]; TRAIL 0.1 μg/mL, 6 hr): 49.6 RLU | γ-H2AX Western Blot ([5]; TRAIL 0.1 μg/mL, 0 hr): 2.7 RLU | γ-H2AX Western Blot ([5]; TRAIL 0.1 μg/mL, 1 hr): 17.3 RLU | γ-H2AX Western Blot ([5]; TRAIL 0.1 μg/mL, 3 hr): 45.8 RLU | γ-H2AX Western Blot ([5]; TRAIL 0.1 μg/mL, 6 hr): 43.5 RLU
